The test system of experiment [1] is rabbit aortic rings. Description: Assay B: In Vitro Vascular Smooth Muscle Response for AII. The format is cell-based. The settings on record: for Kb: Oryctolagus cuniculus, read-out: Assay B pA2 (converted); for Kb / Assay B pA2: antagonist at 10^-5 M, two values per cell = aorta rings from two rabbits. The protocol: Assay B: In Vitro Vascular Smooth Muscle-Response for ATT
Compounds of Formula I were tested for antagonist activity in rabbit aortic rings. Male New Zealand white rabbits (2–2.5 kg) were sacrificed using an overdose of pentobarbital and exsanguinated via the carotid arteries. The thoracic aorta was removed, cleaned of adherent fat and connective tissue and then cut into 3-mm ring segments. The endothelium was removed from the rings by gently sliding a rolled-up piece of filter paper into the vessel lumen. The rings were then mounted in a water-jacketed tissue bath, maintained at 37° C., between moveable and fixed ends of a stainless steel wire with the moveable end attached to an FT03 Grass transducer coupled to a Model 7D Grass Polygraph for recording isometric force responses. The bath was filled with 20 ml of oxygenated (95% oxygen/5% carbon dioxide) Krebs solution of the following composition […]: 130 NaCl, 15 NaHCO3, 15 KCl, 1.2 NaH2PO4, 1.2 MgSO4, 2.5 CaCl2, and 11.4 glucose. The preparations were equilibrated for one hour before approximately one gram of passive tension was placed on the rings. Angiotensin II concentration-response curves were then recorded (3×10^−10 to 1×10–5 M). Each concentration of AII was allowed to elicit its maximal contraction, and then AII was washed out repeatedly for 30 minutes before rechallenging with a higher concentration of AII. Aorta rings were exposed to the test antagonist at 10^−5 M for 5 minutes before challenging with AII. Adjacent segments of the same aorta ring were used for all concentration-response curves in the presence or absence of the test antagonist. The effectiveness of the test compound was expressed in terms of pA2 values and were calculated according to H. O. Schild [Br. J. Pharmacol. Chemother., 2, 189–206 (1947)]. […] Each test antagonist was evaluated in aorta rings from two rabbits.

Experiment [2] has as its target T1, smooth muscle angiotensin II receptor.
T1 construct: Rat uterine membranes were prepared from fresh tissue
Kind of experiment: Assay A: Angiotensin II Binding Activity. Particulars: rat uterine membrane preparation, displacement of 125I-AII. The protocol:
Assay A: Angiotensin II Binding Activity
Compounds of Formula I were tested for ability to bind to the smooth muscle angiotensin II receptor using a rat uterine membrane preparation. […] Other chemicals were obtained from Sigma Chemical Co. This assay was carried out according to the method of Douglas et al [Endocrinology, 106, 120–124 (1980)]. Rat uterine membranes were prepared from fresh tissue. All procedures were carried out at 4° C. Uteri were stripped of fat and homogenized in phosphate-buffered saline at pH 7.4 containing 5 mM EDTA. The homogenate was centrifuged at 1500×g for 20 min., and the supernatant was recentrifuged at 100,000×g for 60 min. The pellet was resuspended in buffer consisting of 2 mM EDTA and 50 mM Tris-HCl (pH 7.5) to a final protein concentration of 4 mg/ml. […] The reaction was initiated by the addition of membrane protein and the mixture was incubated at 25° C. for 60 min. The incubation was terminated with ice-cold 50 mM Tris-HCl (pH 7.5) and the mixture was filtered to separate membrane-bound labelled peptide from the free ligand. The incubation tube and filter were washed with ice-cold buffer. Filters were assayed for radioactivity in a Micromedic gamma counter. Nonspecific binding was defined as binding in the presence of 10 μM of unlabelled AII. Specific binding was calculated as total binding minus nonspecific binding. […] Binding data were analyzed by a nonlinear least-squares curve fitting program.

The values below come from patent US7132437B2, “Renal-selective biphenylalkyl 1H-substituted-1,2,4-triazole angiotensin II antagonists for treatment of hypertension” (G.D. Searle, priority 1990, dated 2006).

As to `CCCCc1nc(CCC(C)C)n(Cc2ccc(-c3ccccc3C(=O)O)cc2)n1` [Example 16], the Kb in experiment [1] is 1.12 nM. `CCCCc1ncnn1Cc1ccc(-c2ccccc2C(=O)O)cc1` (single isomer, unassigned) [Example 18, 4′-[(5-butyl-1H-1,2,4-triazol-1-yl)methyl][1,1′-biphenyl]-2-carboxylic acid]: in experiment [1], the “Assay B pA2” value is on record as 6.09. In addition, in experiment [2], the IC50 came out at 970 nM. For `CCCCc1ncn(Cc2ccc(-c3ccccc3C(=O)O)cc2)n1` (single isomer, unassigned) [Example 19, 4′-[(3-butyl-1H-1,2,4-triazol-1-yl)methyl][1,1′-biphenyl]-2-carboxylic acid] the same measures were 5.35 and 12000 nM. The matching figures for `CCCCc1nc(CC)nn1Cc1ccc(-c2ccccc2-c2nnn[nH]2)cc1` (single isomer, unassigned) [Example 39, 5-[4′-[(5-butyl-3-ethyl-1H-1,2,4-triazol-1-yl)methyl][1,1′-biphenyl]-2-yl]-1H-tetrazole]: 7.84 and 10 nM. Compound `CCCCc1nc(CNC(C)=O)nn1Cc1ccc(-c2ccccc2-c2nnn[nH]2)cc1` [Example 31, N-[[5-butyl-1-[2′-(1H-tetrazol-5-yl)[1,1′-biphenyl]-4-ylmethyl]-1H-1,2,4-triazol-3-yl]methyl]acetamide] displayed an IC50 in experiment [2] of 14 nM.

For “1,1-dimethylethyl [3-butyl-[1-2′-(1H-tetrazol-5-yl)[1,1′-biphenyl]-4-ylmethyl]-1H-1,2,4-triazol-5-yl]methylcarbamate [Example 34]”, the IC50 in experiment [2] is 640 nM. On the same count and under the same terms, for `CCCCc1nc(C(F)F)n(Cc2ccc(-c3ccccc3-c3nnn[nH]3)cc2)n1` (single isomer, unassigned) [Example 48, 5-[4′-[[3-butyl-5-(difluoromethyl)-1H-1,2,4-triazol-1-yl]methyl][1,1′-biphenyl]-2-yl]-1H-tetrazole] the value was 680 nM. Consider `CCCCc1nc(CCC2CCCCC2)n(Cc2ccc(-c3ccccc3-c3nnn[nH]3)cc2)n1` (single isomer, unassigned) [Example 42, 5-[4′-[[3-butyl-5-(2-cyclohexylethyl)-1H-1,2,4-triazol-1-yl]methyl][1,1′-biphenyl]-2-yl]-1H-tetrazole], for which the “Assay B pA2” value in experiment [1] is reported as 6.26. Further, in experiment [2], the IC50 came to 370 nM. As to `CCCCc1nc(CC(OCC)OCC)n(Cc2ccc(-c3ccccc3-c3nnn[nH]3)cc2)n1` (single isomer, unassigned) [Example 37, 5-[4′-[[3-butyl-5-(2,2-diethyoxyethyl)-1H-1,2,4-triazol-1-yl]methyl][1,1′-biphenyl]-2-yl]-1H-tetrazole], the “Assay B pA2” value in experiment [1] is recorded as 6.85. In experiment [2], this compound gave an IC50 of 340 nM. For `CCCCCc1nc(CN)nn1Cc1ccc(-c2ccccc2-c2nnn[nH]2)cc1` [Example 13, 5-[4′-[(3-aminomethyl-5-pentyl-1H-1,2,4-triazol-1-yl)methyl][1,1′-biphenyl]-2-yl]-1H-tetrazole], the Kb in experiment [1] is 2 nM. Consider `CCCCc1nc(C(F)F)nn1Cc1ccc(-c2ccccc2-c2nnn[nH]2)cc1` (single isomer, unassigned) [Example 47, 5-[4′-[[5-butyl-3-(difluoromethyl)-1H-1,2,4-triazol-1-yl]methyl][1,1′-biphenyl]-2-yl]-1H-tetrazole], for which, in experiment [1], the “Assay B pA2” value was 7.58. The IC50 in experiment [2] amounted to 21 nM. For `CCCCc1nc(CCc2ccccc2)n(Cc2ccc(-c3ccccc3-c3nnn[nH]3)cc2)n1` (single isomer, unassigned) [Example 25] the same measures were 6.73 and 480 nM. Take `CCCCc1nc(CCC)n(Cc2ccc(-c3ccccc3C(=O)O)cc2)n1` [Example 15, 4′-[(3-butyl-5-propyl-1H-1,2,4-triazol-1-yl)methyl]-[1,1′-biphenyl]-2-carboxylic acid]: the Kb in experiment [1] is 4.9 nM. This compound also showed an IC50 in experiment [2] of 16 nM.

Regarding `CCCCCCCCc1nc(CCCC)n(Cc2ccc(-c3ccccc3-c3nnn[nH]3)cc2)n1` (single isomer, unassigned) [Example 29, 5-[4′-[(5-butyl-3-octyl-1H-1,2,4-triazol-1-yl)methyl][1,1′-biphenyl]-2-yl]-1H-tetrazole], the IC50 in experiment [2] was 160 nM.

As to `CCCCc1nc(C)n(Cc2ccc(-c3ccccc3-c3nnn[nH]3)cc2)n1` (single isomer, unassigned) [Example 33, 5-[4′-[(3-butyl-5-methyl-1H-1,2,4-triazol-1-yl)methyl][1,1′-biphenyl]-2-yl]-1H-tetrazole], the 50% inhibitory concentration (IC50) in experiment [2] was 630 nM. `CCCCc1nc(C(F)(F)CCC)n(Cc2ccc(-c3ccccc3C(=O)O)cc2)n1` [Example 11, 4′-[[3-butyl-5-(1,1-difluorobutyl)-1H-1,2,4-triazol-1-yl]methyl][1,1′-biphenyl]-2-carboxylic acid]: the IC50 in experiment [2] was found to be 160 nM. Consider `CCCCc1nc(CC)n(Cc2ccc(-c3ccccc3-c3nnn[nH]3)cc2)n1` (single isomer, unassigned) [Example 40, 5-[4′-[(3-butyl-5-ethyl-1H-1,2,4-triazol-1-yl)methyl][1,1′-biphenyl]-2-yl]-1H-tetrazole], for which the IC50 in experiment [2] is 83 nM. As for `CCCCc1nc(CCC)nn1Cc1ccc(-c2ccccc2C(=O)O)cc1` [Example 14, 4′-[(5-butyl-3-propyl-1H-1,2,4-triazol-1-yl)methyl]-[1,1′-biphenyl]-2-carboxylic acid], the Kb in experiment [1] is 1.45 nM. Still for that read-out and setting: next, `CCCCc1nc(CCCC)n(Cc2ccc(-c3ccccc3C(=O)O)cc2)n1` [Example 2, 4′-[(3,5-dibutyl-1H-1,2,4-triazol-1-yl)methyl][1,1′-biphenyl]-2-carboxylic acid]: 42.7 nM. For `CCCc1nc(CN)nn1Cc1ccc(-c2ccccc2-c2nnn[nH]2)cc1` [Example 12, 5-[4′-[(3-aminomethyl-5-propyl-1H-1,2,4-triazol-1-yl)methyl][1,1′-biphenyl]-2-yl]-1H-tetrazole], the Kb in experiment [1] is 2.19 nM. Moreover, in experiment [2], the IC50 is 6 nM. Turning to `CCCCc1nc(CCC2CCCCC2)nn1Cc1ccc(-c2ccccc2-c2nnn[nH]2)cc1` (single isomer, unassigned) [Example 43, 5-[4′-[[5-butyl-3-(2-cyclohexylethyl)-1H-1,2,4-triazol-1-yl]methyl][1,1′-biphenyl]-2-yl]-1H-tetrazole], the IC50 in experiment [2] was 19 nM.

As to `CCCCc1nc(CC(OCC)OCC)nn1Cc1ccc(-c2ccccc2-c2nnn[nH]2)cc1` (single isomer, unassigned) [Example 38, 5-[4′-[[5-butyl-3-(2,2-diethyoxyethyl)-1H-1,2,4-triazol-1-yl]methyl][1,1′-biphenyl]-2-yl]-1H-tetrazole], the IC50 in experiment [2] turned out to be 10 nM. In the case of `CCCCc1nc(CCCN)n(Cc2ccc(-c3ccccc3-c3nnn[nH]3)cc2)n1` [Example 71, 5-[4-[[3-butyl-5-(3-aminopropyl)-1H-1,2,4-triazol-1-yl]methyl][1,1′-biphenyl]-2-yl]-1H-tetrazole], the “Assay B antagonist activity (symbol in pA2 column)” value in experiment [1] is “* (Antagonist activity not observed up to 10 μM of test compound.)”. `CCCCc1nc(C(F)(F)C(F)(F)C(F)(F)F)nn1Cc1ccc(-c2ccccc2-c2nnn[nH]2)cc1` [Example 70, 5-[4′-[[3-(1,1,2,2,3,3,3-heptafluoropropyl)-5-butyl-1H-1,2,4-triazol-1-yl]methyl][1,1′-biphenyl]-2-yl]-1H-tetrazole] displayed an IC50 in experiment [2] of 44 nM. Same read-out and setting: next, `CCCCc1nc(Cl)n(Cc2ccc(-c3ccccc3C(=O)O)cc2)n1` (single isomer, unassigned) [Example 8, 4′-[(3-butyl-5-chloro-1H-1,2,4-triazol-1-yl)methyl][1,1′-biphenyl]-2-carboxylic acid]: 17000 nM.

On to `CCCCc1nc(C=O)nn1Cc1ccc(-c2ccccc2-c2nnn[nH]2)cc1` [Example 49, 5-butyl-1-[2′-(1H-tetrazol-5-yl)[1,1′-biphenyl]-4-ylmethyl]-1H-1,2,4-triazole-3-carboxaldehyde], for which, in experiment [1], the “Assay B pA2” value stood at 7.07.
